These are literature values, as cited in patent US20250032494A1, “A COMBINATION TREATMENT FOR CANCER” (My Personal Therapeutics LTD, priority 2021, published 2025).

For series [1] the following is noted: patients; with and without co-administration of DMARDs.
The subject of series [2] is tumors with the BRAF V600 mutation. The following applies: both in vitro and in vivo.
The conditions of series [3]: patients; versus cytotoxic active controls dacarbazine or paclitaxel.

Structures are written as SMILES.

As for `CCOc1cc([C@@H](CS(C)(=O)=O)N2C(=O)c3cccc(NC(C)=O)c3C2=O)ccc1OC` [Apremilast], in series [1], the improvement over placebo entry is “statistically significant improvement over placebo”.

For `CC(=O)Nc1cccc(-n2c(=O)n(C3CC3)c(=O)c3c(Nc4ccc(I)cc4F)n(C)c(=O)c(C)c32)c1` [Trametinib], the “cell growth of tumors with the BRAF V600 mutation” value in series [2] is listed as “inhibits cell growth”. The progression-free survival entry in series [3] is reported as “statistically significant increase in progression-free survival”.
